The values that follow come from US9381143B2, “Use of substituted methoxyalkoxyphenylalkyl derivatives as preservative, preserving method, compounds and composition” (L'OREAL, priority 2010, dated 2016).

Common to all, as to assay: Challenge Test (artificial contamination) of cosmetic formula
Format in all cases: cell-based

The test system of test [1] is Pseudomonas aeruginosa (Pa) ATCC 19429. The following applies: 2% compound in cosmetic formula; inoculum approx. 10^6 CFU/g; 7 days at 22° C. in the dark; <200 CFU = sensitivity threshold. On the procedure:
(§1) The antimicrobial efficacy of a compound of formula (I) was evaluated by the Challenge Test or artificial contamination method.
(§2) The challenge test method consists of an artificial contamination of the sample with microbial strains from collection (bacteria, yeasts and moulds) and of an evaluation of the number of revivable microorganisms seven days after inoculation.
(§3) 5 pure cultures of microorganisms are used.
(§4) The gram−bacterial strains (Escherichia coli and Pseudomonas aeruginosa), the gram+bacterial strain (Enterococcus faecalis), the yeast strain (Candida albicans), and the mould strain (Aspergillus niger) are inoculated into subculturing medium, respectively the day before inoculation for the bacteria and the yeast, and 5 days before inoculation for the mould.
(§5) On the day of inoculation: • a suspension in tryptone salt diluent is prepared respectively for the bacteria and the yeast in such a way as to obtain, on a spectrophotometer, a suspension having an optical density between 35% and 45% of transmitted light at 544 nm; • for the mould, the spores are taken by washing the agar with 6 to 7 ml of harvesting solution and the suspension is recovered in a sterile flask or tube.
(§6) After having homogenized the microbial suspension, 0.2 ml of inoculum (the suspensions are used pure: between 1×10^8 and 3×10^8 CFU per ml) are placed in each pill bottle and the microbial suspension is completely homogenized in the 20 g of product (=cosmetic formula) using a spatula.
(§7) The amount of microorganisms present in the product corresponds, after homogenization, to a concentration of 10^6 microorganisms per gram of product, i.e. the inoculation at 1% of an inoculum containing 10^8 microorganisms per ml. After 7 or 14 days of contact time between the microorganisms and the product at 22° C.±2° C. and in the dark, ten-fold dilutions are carried out and the number of revivable microorganisms remaining in the product is counted.

Test [2] relates to Escherichia coli (Ec) ATCC 8739. The following applies: 2% compound in cosmetic formula; inoculum approx. 10^6 CFU/g; 7 days at 22° C. in the dark; <200 CFU = sensitivity threshold. On the procedure: as §1, §2, §3, §4, §5, §6, §7
Test [3] relates to Enterococcus faecalis (Ef) ATCC 33186. The following applies: 2% compound in cosmetic formula, inoculum approx. 10^6 CFU/g. On the procedure:
as §1, §2, §3, §4, §5, §6, §7

Test [4] deals with Aspergillus niger (An) ATCC 6275. The following applies: 2% compound in cosmetic formula, inoculum approx. 10^6 CFU/g. On the procedure:
as §1, §2, §3, §4, §5, §6, §7

Test [5] relates to Candida albicans (Ca) ATCC 10231. The following applies: 2% compound in cosmetic formula; inoculum approx. 10^6 CFU/g; 7 days at 22° C. in the dark; <200 CFU = sensitivity threshold. The method, then:
as §1, §2, §3, §4, §5, §6, §7

Turning to `COc1ccc(CCC(C)=O)cc1OC`, the “Number of CFU/gram of product at T = 7 days, P. aeruginosa” value in test [1] is recorded as <200 CFU/gram of product. Further, the “Number of CFU/gram of product at T = 7 days, E. coli” value in test [2] is <200 CFU/gram of product. Also, the “Number of CFU/gram of product at T = 7 days, E. faecalis” value in test [3] (7 days at 22° C. in the dark) is 7.3 · 10^5 CFU/gram of product. Also, the “Number of CFU/gram of product at T = 14 days, E. faecalis” value in test [3] (14 days at 22° C. in the dark) is given as 3.3 · 10^8 CFU/gram of product. Moreover, the “Number of CFU/gram of product at T = 7 days, A. niger” value in test [4] (7 days at 22° C. in the dark) is on record as 1.4 · 10^6 CFU/gram of product. For the same compound, the “Number of CFU/gram of product at T = 14 days, A. niger” value in test [4] (14 days at 22° C. in the dark) is listed as 3.6 · 10^5 CFU/gram of product. Further, in test [5], the “Number of CFU/gram of product at T = 7 days, C. albicans” value is <200 CFU/gram of product.
